Each molecule was assayed against T1, Human eIF4E (Homo sapiens, UniProt P06730) (assay: Human eIF4E/4G2 binding assay (TR-FRET)). Details: eIF4E (aa 28-217) with biotin labeled 4G2 peptide.
T1 construct: Human eIF4E (aa 28-217) with a C-terminal His-tag; made in house
Description: Human eIF4E (aa 28-217) with a C-terminal His-tag was expressed in E. coli in inclusion bodies. The protein was solubilized with 8 M urea and purified under denaturing conditions using nickel-charged HisTrap HP columns (GE Healthcare). The purified protein was then refolded by diluting in 20 mM Hepes pH 7.0, 0.5 M NaCl, 1 mM DTT, 1 mM EDTA, 0.5 M arginine plus 6 M urea, and then dialyzing overnight into the same buffer without the urea. The protein was further dialyzed into 20 mM Hepes, pH 6.5, 50 mM NaCl, 1 mM EDTA, 1 mM DTT, and concentrated using Hitrap SP sepharose FF columns (GE Healthcare). The concentrated protein was dialyzed into 20 mM Hepes, pH 7.0, 0.5M NaCl, 5 mM DTT and 10% glycerol, and stored at −80° C. until use.
Test compounds (3.43 mM stock in DMSO) were diluted 2-fold in series in DMSO (10 concentration points). Compound solutions (1.2 μl/well) were added into black 384-well polypropylene microplates (Matrix, Thermal Scientific). Twenty-two microliters per well of Assay Buffer (50 mM NaPi, pH 6.5, 50 mM KCl, 1 mM DTT and 0.5 mg/ml gamma globulin) and eight microliters per well of 82.5 nM purified eIF4E in Assay Buffer were added. The samples were incubated at room temperature (20-23° C.) for 15 min. Biotin labeled 4G2 peptide (Ac-Lys-Gln-Tyr-Asp-Arg-Glu-Phe-Leu-Leu-Asp-Phe-Gln-Phe-Met-Pro-Lys(Aha-Bio)-NH2, 1.75 μM stock in DMSO) was diluted to 0.14 μM in Assay Buffer (without DTT) and 5 μl/well was added. The samples were incubated at room temperature for 15 min. Five microliters per well of 6.4 nM Eu-streptavidin (Eu-SA, Perkin Elmer) and 80 nM Allophycocyanin (APC)-anti His antibody (Columbia Biosciences) in Assay Buffer (without DTT) were then added and the samples were incubated at room temperature for 20 min.
Assay signals were monitored by reading excitation at 340 nm and emission fluorescence at 615 nm and 665 nm on an Envision reader (Perkin Elmer). Normalized TR-FRET (time-resolved fluorescence resonance energy transfer) assay signal (Rn) was calculated by the formula: Rn═[(A−Ba−C×D)/(D−Bd)]×(Dc−Bd) • Where A is the fluorescence intensity of the sample at 665 nm, • D is the fluorescence intensity of the sample at 615 nm, • Ba and Bd are plate backgrounds at 665 nm and 615 nm, respectively, • Dc is the fluorescence intensity of 0.78 nM Eu-SA in the assay buffer at 615 nm • The cross-talk factor (C) is determined by the following formula: C=(Ac−Ba)/(Dc−Bd) • Where Ac is the fluorescence intensity of 0.78 nM Eu-SA in the assay buffer at 665 nm.
IC50 values were calculated using xLFit program (IDBS).

T1 sequence (P06730 28-217): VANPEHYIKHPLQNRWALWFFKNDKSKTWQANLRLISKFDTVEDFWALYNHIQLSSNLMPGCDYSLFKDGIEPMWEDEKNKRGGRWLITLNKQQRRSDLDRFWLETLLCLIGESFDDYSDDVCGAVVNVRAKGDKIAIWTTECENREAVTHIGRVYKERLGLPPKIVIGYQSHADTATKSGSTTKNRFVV

Row | SMILES | IC50
1 | O=C(O)C1(CNc2nc(-c3ccc(-c4cnco4)cc3)c(-c3cccnc3)s2)CC1 [Compound I-46] | > 25 µM
2 | CC(C)C(CC(=O)O)Nc1nc(-c2ccc(-c3ccc(F)cc3)cc2)c(-c2cccnc2)s1 (stereo not drawn) [Compound I-68] | > 25 µM
3 | O=C(O)C1CCCN(c2nc(-c3ccc(-c4ccc(F)cc4)cc3)cs2)C1 (stereo not drawn) [Compound I-105] | 5 to 25 µM
4 | CC1(C(=O)O)CN(c2nc(-c3ccc(-c4cnco4)cc3)c(-c3cncnc3)s2)C1 [Compound I-14] | > 25 µM
5 | CC(CC(=O)O)Nc1nc(-c2ccc(Oc3ccccc3)cc2)c(-c2cncnc2)s1 (stereo not drawn) [Compound I-173] | > 25 µM
6 | O=C(O)C1CN(c2nc(-c3ccc(-c4ccc(F)cc4)cc3)c(-c3cncnc3)s2)C1 [Compound I-78] | > 25 µM
7 | CC(CC(=O)O)Nc1nc(-c2ccc(-c3ccc(F)cc3)cc2)cs1 (stereo not drawn) [Compound I-93] | > 25 µM
8 | O=C(O)CC1CCCN1c1nc(-c2ccc(-c3cnco3)cc2)c(-c2cccnc2)s1 (stereo not drawn) [Compound I-38] | > 25 µM
9 | CCCC(CNc1nc(-c2ccc(-c3cnco3)cc2)c(-c2cccc3[nH]ccc23)s1)C(=O)O (stereo not drawn) [Compound I-21] | > 25 µM
10 | CC(C)(CNc1nc(-c2ccc(-c3ccc(F)cc3)cc2)c(Br)s1)C(=O)O [Compound I-71] | 5 to 25 µM
11 | O=C(O)C1(CNc2nc(-c3ccc(Oc4ccccc4)cc3)cs2)CC1 [Compound I-195] | > 25 µM
12 | O=C(O)C1(CNc2nc(-c3ccc(-c4cnco4)cc3)c(-c3ccccc3)s2)CC1 [Compound I-44] | > 25 µM
13 | O=C(O)C1CCN(c2nc(-c3ccc(-c4cnco4)cc3)c(-c3cccnc3)s2)CC1 [Compound I-54] | > 25 µM
14 | CCCC(CNc1nc(-c2cccnc2)c(-c2ccc(-c3cnco3)cc2)s1)C(=O)O (stereo not drawn) [Compound I-20] | > 25 µM
15 | CC(CNc1nc(-c2ccc(-c3ccc(F)cc3)cc2)c(Br)s1)C(=O)O (stereo not drawn) [Compound I-100] | 5 to 25 µM
16 | O=C(O)C1CCN(c2nc(-c3ccc(-c4ccc(F)cc4)cc3)c(-c3cncnc3)s2)C1 (stereo not drawn) [Compound I-117] | > 25 µM
17 | O=C(O)C1CN(c2nc(-c3ccc(-c4ccc(F)cc4)cc3)c(C(F)(F)F)s2)CCO1 (stereo not drawn) [Compound I-239] | 5 to 25 µM
18 | CC(CC(=O)O)Nc1nc(-c2ccc(-c3ccc(F)cc3)cc2)c(Br)s1 (stereo not drawn) [Compound I-94] | 5 to 25 µM
19 | CCCC(CNc1nc(-c2ccc(-c3cnco3)cc2)cs1)C(=O)O (stereo not drawn) [Compound I-17] | > 25 µM
20 | Cc1sc(NCC(C)C(=O)O)nc1-c1ccc(-c2ccc(F)cc2)cc1 (stereo not drawn) [Compound I-230] | 5 to 25 µM
21 | O=C(O)C1CCN(c2nc(-c3ccc(-c4ccc(F)cc4)cc3)c(-c3cncnc3)s2)CC1 [Compound I-137] | > 25 µM
22 | CCCC(CNc1nc(-c2ccc(Oc3ccccc3)cc2)cs1)C(=O)O (stereo not drawn) [Compound I-167] | > 25 µM
23 | O=C(O)C1CC(CNc2nc(-c3ccc(-c4ccc(F)cc4)cc3)cs2)C1 (stereo not drawn) [Compound I-126] | > 25 µM
24 | O=C(O)CCc1nc(-c2ccc(-c3ccc(F)cc3)cc2)c(-c2ccccc2)s1 [Compound I-234, 3-(4-(4′-fluorobiphenyl-4-yl)-5-phenylthiazol-2-yl)propanoic acid] | < 5 µM
25 | CC(CC(=O)O)Nc1nc(-c2ccc(-c3ccc(F)cc3)cc2)c(-c2cccnc2)s1 (stereo not drawn) [Compound I-97] | > 25 µM

Results, then the molecule that gave them:

Row | IC50 | SMILES
26 | 5 to 25 µM | CC1(C(=O)O)CN(c2nc(-c3ccc(-c4ccc(F)cc4)cc3)c(-c3cccc4[nH]ccc34)s2)C1 [Compound I-86]
27 | < 5 µM | O=C(O)[C@@H]1CCCN(c2nc(-c3ccc(-c4ccc(F)cc4)cc3)c(-c3ccccc3)s2)C1 [Compound I-223]
28 | > 25 µM | CC1(C(=O)O)CN(c2nc(-c3ccc(Oc4ccccc4)cc3)c(-c3cccnc3)s2)C1 [Compound I-165]
29 | 5 to 25 µM | CC(C)C(CC(=O)O)Nc1nc(-c2ccc(-c3ccc(F)cc3)cc2)c(-c2cccc3[nH]ccc23)s1 (stereo not drawn) [Compound I-69]
30 | > 25 µM | O=C(O)C1CCN(c2nc(-c3ccc(Oc4ccccc4)cc3)c(-c3cncnc3)s2)C1 (stereo not drawn) [Compound I-192]
31 | > 25 µM | O=C(O)C1CCN(c2nc(-c3ccc(-c4cnco4)cc3)c(-c3cccc4[nH]ccc34)s2)CC1 [Compound I-55]
32 | < 5 µM | O=C(O)[C@H]1CCCN(c2nc(-c3ccc(-c4ccc(F)cc4)cc3)c(-c3ccccc3)s2)C1 [Compound I-224]
33 | < 5 µM | O=C(O)CC1CCCN1c1nc(-c2ccc(-c3ccc(F)cc3)cc2)c(-c2ccccc2)s1 (stereo not drawn) [Compound I-111]
34 | 5 to 25 µM | CCCC(CNc1nc(-c2ccc(-c3ccc(F)cc3)cc2)c(-c2cccc3[nH]ccc23)s1)C(=O)O (stereo not drawn) [Compound I-92]
35 | > 25 µM | CC(CNc1nc(-c2ccc(Oc3ccccc3)cc2)c(-c2cncnc2)s1)C(=O)O (stereo not drawn) [Compound I-178]
36 | 5 to 25 µM | CC(C)(CNc1nc(-c2ccc(-c3ccc(F)cc3)cc2)c(-c2cccc3[nH]ccc23)s1)C(=O)O [Compound I-75]
37 | < 5 µM | O=C(O)C1CN(c2nc(-c3ccc(-c4ccc(F)cc4)cc3)c(-c3cccc4[nH]ccc34)s2)CCO1 (stereo not drawn) [Compound I-143]
38 | < 5 µM | CC1(C(=O)O)CCCN(c2nc(-c3ccc(Oc4ccccc4)cc3)c(-c3cccc4[nH]ccc34)s2)C1 (stereo not drawn) [Compound I-220]
39 | 5 to 25 µM | CC(C)(CNc1nc(-c2ccc(Oc3ccccc3)cc2)c(-c2cccc3[nH]ccc23)s1)C(=O)O [Compound I-157]
40 | > 25 µM | CC1(C(=O)O)CCCN(c2nc(-c3ccc(Oc4ccccc4)cc3)c(-c3cncnc3)s2)C1 (stereo not drawn) [Compound I-218]
41 | > 25 µM | O=C(O)C1CCN(c2nc(-c3ccc(Oc4ccccc4)cc3)cs2)C1 (stereo not drawn) [Compound I-190]
42 | > 25 µM | CC(C)(CNc1nc(-c2ccc(-c3cnco3)cc2)c(-c2cccc3[nH]ccc23)s1)C(=O)O [Compound I-8]
43 | 5 to 25 µM | CCCC(CNc1nc(-c2ccc(Oc3ccccc3)cc2)c(-c2cccc3[nH]ccc23)s1)C(=O)O (stereo not drawn) [Compound I-171]

Row | IC50 | SMILES
44 | < 5 µM | CC1(C(=O)O)CCCN(c2nc(-c3ccc(-c4ccc(F)cc4)cc3)c(-c3ccccc3)s2)C1 (stereo not drawn) [Compound I-144]
45 | < 5 µM | CC1(C(=O)O)CCCN(c2nc(-c3ccc(Oc4ccccc4)cc3)c(-c3ccccc3)s2)C1 (stereo not drawn) [Compound I-217]
46 | 5 to 25 µM | O=C(O)C1CC(CNc2nc(-c3ccc(Oc4ccccc4)cc3)c(-c3cccc4[nH]ccc34)s2)C1 (stereo not drawn) [Compound I-204]
47 | > 25 µM | CC1(C(=O)O)CN(c2nc(-c3ccc(Oc4ccccc4)cc3)c(-c3cncnc3)s2)C1 [Compound I-164]
48 | < 5 µM | O=C(O)C1CN(c2nc(-c3ccc(Oc4ccccc4)cc3)c(-c3ccccc3)s2)C1 [Compound I-158]
49 | 5 to 25 µM | CC(C)C(CC(=O)O)Nc1nc(-c2ccc(Oc3ccccc3)cc2)c(-c2cccc3[nH]ccc23)s1 (stereo not drawn) [Compound I-152]
50 | 5 to 25 µM | O=C(O)C1CN(c2nc(-c3ccc(Oc4ccccc4)cc3)c(-c3cccc4[nH]ccc34)s2)C1 [Compound I-161]
51 | > 25 µM | O=C(O)C1(CNc2nc(-c3ccc(Oc4ccccc4)cc3)c(-c3cncnc3)s2)CC1 [Compound I-197]
52 | 5 to 25 µM | O=C(O)C1(CNc2nc(-c3ccc(Oc4ccccc4)cc3)c(-c3cccc4[nH]ccc34)s2)CC1 [Compound I-199]
53 | < 5 µM | O=C(O)C[C@H]1CCCN1c1nc(-c2ccc(-c3ccc(F)cc3)cc2)c(-c2ccccc2)s1 [Compound I-225]
54 | 5 to 25 µM | CC(CC(=O)O)Nc1nc(-c2ccc(-c3ccc(F)cc3)cc2)c(-c2cccc3[nH]ccc23)s1 (stereo not drawn) [Compound I-98]
55 | > 25 µM | O=C(O)C1CN(c2nc(-c3ccc(Oc4ccccc4)cc3)c(-c3cccnc3)s2)C1 [Compound I-160]
56 | > 25 µM | O=C(O)CC1CCCN1c1nc(-c2ccc(Oc3ccccc3)cc2)c(-c2cncnc2)s1 (stereo not drawn) [Compound I-187]
57 | < 5 µM | O=C(O)C1CCN(c2nc(-c3ccc(-c4ccc(F)cc4)cc3)c(-c3ccccc3)s2)CC1 [Compound I-136]
58 | > 25 µM | CCCC(CNc1nc(-c2ccc(Oc3ccccc3)cc2)c(-c2cccnc2)s1)C(=O)O (stereo not drawn) [Compound I-170]
59 | < 5 µM | O=C(O)C1CC(CNc2nc(-c3ccc(Oc4ccccc4)cc3)c(-c3ccccc3)s2)C1 (stereo not drawn) [Compound I-201]
60 | > 25 µM | O=C(O)CC1CCCN1c1nc(-c2ccc(Oc3ccccc3)cc2)c(-c2cccnc2)s1 (stereo not drawn) [Compound I-188]

Source: patent US12030875B2, “EIF4E inhibitors and uses thereof” (PIC Therapeutics, Inc., priority 2018, dated 2024)
